# Results: article PMC7252514 (Science (New York, N.Y.), 2019)
# Experiments:
# [1] = target: α7 nAChR (Homo sapiens, UniProt P36544); experiment: Agonist activity at α7 nAChR; assay type: cell-based
# [2] = test system: PgP; details: cited from earlier work
# [3] = target: α7^L131G,Q139L,Y217F-GlyR (Homo sapiens, UniProt P23415+P36544, L131G/Q139L/Y217F); experiment: Electrophysiological recordings from HEK-293 cells expressing PSAM4-GlyR; assay type: cell-based
# [4] = target: T1, PSAM^4-5HT3 (Homo sapiens, UniProt P36544, L131G/Q139L/Y217F, form not given, species not given); experiment: Membrane potential; assay type: cell-based; details: endogenous ligands
# T1 sequence (P23979 242-489, form open): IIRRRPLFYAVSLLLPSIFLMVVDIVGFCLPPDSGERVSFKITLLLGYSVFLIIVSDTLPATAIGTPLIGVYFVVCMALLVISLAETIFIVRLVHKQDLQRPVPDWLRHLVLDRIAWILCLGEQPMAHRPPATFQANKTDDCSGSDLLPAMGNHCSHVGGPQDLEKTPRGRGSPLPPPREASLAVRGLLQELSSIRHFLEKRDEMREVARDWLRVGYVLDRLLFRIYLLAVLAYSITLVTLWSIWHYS
# T1 sequence (P36544 23-224 L131G/Q139L/Y217F, form open): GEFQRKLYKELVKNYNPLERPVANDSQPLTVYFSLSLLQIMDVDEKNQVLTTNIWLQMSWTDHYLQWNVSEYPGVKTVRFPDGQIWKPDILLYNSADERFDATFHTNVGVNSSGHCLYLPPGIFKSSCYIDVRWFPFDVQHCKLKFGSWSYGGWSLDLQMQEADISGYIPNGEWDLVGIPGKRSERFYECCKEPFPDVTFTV
# [5] = test system: PSAM^4-5HT3 HC-expressing layer 2/3 cortical neurons; experiment: Depolarization of layer 2/3 cortical neurons expressing PSAM4-5HT3 HC; details: varenicline 15 nM
# [6] = target: T1, PSAM^4-5HT3; experiment: Electrophysiology of PSAM4-5HT3 currents; assay type: cell-based; details: off-rate
# [7] = test system: PSAM^4-GlyR-expressing layer 2/3 cortical neurons; assay type: cell-based, mice; details: varenicline 10 – 16 nM
# [8] = cited from earlier work
# [9] = test system: PSAM^4-GlyR in GPi neurons; experiment: In vivo electrophysiology of GPi neurons transduced with PSAM4-GlyR; design: species or system rhesus monkey; details: subcutaneous 0.1 mg/kg, versus varenicline prior to AAV transduction
# [10] = Food intake; assay type: in vivo, mice; details: elevated doses
# [11] = test system: cultured hippocampal neurons expressing PSAM^4-GlyR; experiment: Continuous silencing of cultured hippocampal neurons expressing PSAM4-GlyR; assay type: cell-based; details: varenicline 15 nM for 3 – 18 days
# [12] = test system: cultured hippocampal neuron expressing PSAM^4-5HT3; experiment: Sustained depolarization of cultured hippocampal neurons by PSAM4-5HT3; details: continuous varenicline 15 nM exposure
# [13] = test system: α7^L131G-GlyR; experiment: Membrane potential; assay type: cell-based; details: α7L131G-GlyR versus parent channel
# [14] = test system: PSAM^4-GlyR in SNr GABAergic neurons; experiment: Unilateral SNr silencing rotation assay in PSAM4-GlyR mice; assay type: in vivo
# [15] = target: α7^L131G,Q139L,Y217F-GlyR (PSAM^4-GlyR) (Homo sapiens, UniProt P36544, L131G/Q139L/Y217F); experiment: Membrane potential; assay type: cell-based
# Sequence of α7^L131G,Q139L,Y217F-GlyR (PSAM^4-GlyR) (P36544 23-229 L131G/Q139L/Y217F): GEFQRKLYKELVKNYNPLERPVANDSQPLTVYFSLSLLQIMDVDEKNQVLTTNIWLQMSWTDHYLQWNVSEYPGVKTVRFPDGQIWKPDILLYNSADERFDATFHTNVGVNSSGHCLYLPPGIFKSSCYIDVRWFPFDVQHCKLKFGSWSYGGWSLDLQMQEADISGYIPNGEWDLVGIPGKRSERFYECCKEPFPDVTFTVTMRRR
# Sequence of α7^L131G,Q139L,Y217F-GlyR (PSAM^4-GlyR) (P23415 248-457 partner): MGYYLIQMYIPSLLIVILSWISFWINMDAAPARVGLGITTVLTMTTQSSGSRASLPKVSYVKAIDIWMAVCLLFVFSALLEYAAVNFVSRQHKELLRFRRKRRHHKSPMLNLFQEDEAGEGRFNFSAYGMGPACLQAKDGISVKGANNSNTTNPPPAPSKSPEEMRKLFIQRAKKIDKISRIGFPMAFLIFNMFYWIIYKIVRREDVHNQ
# Sequence of α7 nAChR (P36544 23-502): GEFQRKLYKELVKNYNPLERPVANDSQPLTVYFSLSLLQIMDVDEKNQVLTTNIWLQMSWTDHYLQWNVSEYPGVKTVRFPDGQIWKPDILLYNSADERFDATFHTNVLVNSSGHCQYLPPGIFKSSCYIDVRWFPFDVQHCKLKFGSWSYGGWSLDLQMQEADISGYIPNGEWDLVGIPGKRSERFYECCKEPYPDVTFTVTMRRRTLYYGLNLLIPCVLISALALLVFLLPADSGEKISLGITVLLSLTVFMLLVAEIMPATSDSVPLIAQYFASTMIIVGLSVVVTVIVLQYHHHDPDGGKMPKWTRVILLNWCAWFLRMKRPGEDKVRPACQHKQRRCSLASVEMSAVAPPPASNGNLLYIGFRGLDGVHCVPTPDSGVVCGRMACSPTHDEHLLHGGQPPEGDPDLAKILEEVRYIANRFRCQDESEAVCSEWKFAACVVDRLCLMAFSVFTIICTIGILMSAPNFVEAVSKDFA
compound,measurement,setting,value
CN1C2CCCC1CC(NC(=O)c1nn(C)c3ccccc13)C2 (centres unmarked) [granisetron],agonist activity at α7 nAChR,[1],no agonist activity
"C[N+]1([O-])CCN(C2=Nc3cc(Cl)ccc3Nc3ccccc32)CC1 [CNO, clozapine-N-oxide]",PgP substrate,[2],substrate for the P-glycoprotein efflux pump
NCC(=O)O [glycine],response to glycine,[3],did not respond
"CC(=O)OCC[N+](C)(C)C [ACh, acetylcholine]",potency at PSAM4-5HT3,[4],low potencies
c1cnc2cc3c(cc2n1)[C@@H]1CNC[C@H]3C1 [varenicline],depolarization,[5],+17.2 ± 2.4 mV
same,t-off1/2,[6],3.2 ± 1.3 min
same,increase of current amplitude required to fire an action potential (rheobase),[7],6 fold
same,suppression of firing,[7],strongly suppressed firing
same,reduction of input resistance,[7]; on average,3 fold
same,PgP substrate,[2],not a PgP substrate
same,brain penetrance,[8],excellent brain penetrance
same,GPi neuron firing rate and burst firing rate,[9],significantly inhibited
same,food intake,[10],reduced
same,rheobase under constant exposure,[11],maintained elevated rheobase
same,duration of sustained depolarization,[12],14 to 22 days
same,potency enhancement,[13],17 fold
same,time for rotation activity to return nearly to baseline,[14]; intraperitoneal,~4 h
same,time to evident behavioral effects of silencing,[14]; intraperitoneal,≤ 20 min
same,lowest effective dose (LED),"[14]; intraperitoneal, onset of rotation, with amphetamine 3 mg/kg",0.1 mg/kg
same,circling after oral delivery,[14]; oral delivery 5 μg/mL,elicited circling
CN1[C@@H]2CC[C@H]1C[C@@H](OC(=O)c1c[nH]c3ccccc13)C2 [tropisetron],potency enhancement,[13],3 fold
C[N+](C)(C)CCO [choline],potency at PSAM4-5HT3,[4],low potencies
same,EC50,[15],128 ± 32 µM
